Test results: US6613767B1, “Stable aqueous folinate solution” (Pharmachemie B.V., priority 1994, dated 2003)

Assays:
[1] = normal refrigerator temperature of approximately 4° C.; cited from earlier work
[2] = Accelerated shelf life tests of sodium folinate injection, 40° C./75% RH; assay type: physicochemical; conditions: during autoclaving (121° C. for 7 min)
Experimental: Tests were carried out with sodium folinate bulk solutions of 200 ml containing 25, 100, 250 and 400 mg sodium folinate/ml respectively as indicated in Table 1. Each bulk solution was prepared with a 2% excess of sodium folinate, because during autoclaving ca. 2% folinic acid decomposes. Subsquently, 2.15 ml of each formulated solution was used to fill 2R bottles to the exclusion of air. Afterwards, the bottles were then autoclaved at 121° C. for 7 min. The bottles were thereafter stored at 40° C./75% RH (RH=relative humidity). The following analyses were carried out initially at the beginning of the test and after two weeks:
oxygen percentage in the headspace
content of folinic acid and decomposition products.
The results are summarized in the Tables 2-5 for the accelerated shelf life tests of the sodium folinate injection preparation having a content of sodium folinate of 25 mg/ml, 100 mg/ml, 250 mg/ml and 400 mg/ml, respectively. The bottles were stored at 40° C./[…] during the two week time period for the shelf life tests.

Structure (SMILES) | Concentration at which crystallization takes place [1] [mg/mL] | Folinic acid decomposed during autoclaving [2]
Nc1nc(=O)c2c([nH]1)NCC(CNc1ccc(C(=O)N[C@@H](CCC(=O)[O-])C(=O)[O-])cc1)N2C=O.[Ca+2] (some centres unmarked) [Calcium folinate, calcium folinate] | ≥ 15 | 
Nc1nc(=O)c2c([nH]1)NC[C@@H](CNc1ccc(C(=O)N[C@@H](CCC(=O)O)C(=O)O)cc1)N2C=O [folinic acid] |  | ca. 2%
